Source: US20190375708A1 (VenatoRx Pharmaceuticals, Inc., priority 2018, published 2019)

Key:
[1] = system: HBV replication in HepAD38 cells; test: Anti-HBV replication assay in HepAD38 cells (QPCR of extracellular HBV DNA); type: cell-based, HBV (genotype D, serotype ayw); settings: Hepatitis B virus, 168 h, 7 days incubation, extracellular HBV DNA by QPCR, read-out: Anti-HBV EC50
Method in brief: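 HepAD38 cells (HepG2 carrying tet-repressible HBV genotype D genome) induced by tetracycline withdrawal, treated 7 days at 37 °C with compound ([…], 1-log10 dilutions). Extracellular HBV DNA quantified by QPCR against a standard curve, normalised to DMSO; EC50 from 4-parameter fit.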

[2] = In vitro cytotoxicity assay (MTT cell viability) in HepG2 cells; type: cell-based, human; settings: human
Method in brief: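 HepG2 cells incubated 7 days at 37 °C, 5% CO2 with compounds from 30 μM to 1.0 nM (8 half-log dilutions). Viability read as MTT formazan absorbance at 492 nm, normalised to vehicle controls; CC50 from 4-parameter non-linear regression.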

Structure (SMILES) | EC50 [1] | CC50 at 7 days [2]
Cc1cc(NC(=O)c2c(C)c(C(=O)C(=O)N[C@H]3C[C@@H](O)C3(C)C)n(C)c2C)ccc1F [Example 302, N-(4-fluoro-3-methylphenyl)-5-(2-(((1S,3R)-3-hydroxy-2,2-dimethylcyclobutyl)amino)-2-oxoacetyl)-1,2,4-trimethyl-1H-pyrrole-3-carboxamide] | < 50 nM | > 30000 nM
Cc1cc(NC(=O)c2c(C)c(C(=O)C(=O)NC(C)(C)c3noc(CN(C)C)n3)n(C)c2C)cnc1F [Example 200, 5-(2-((2-(5-((dimethylamino)methyyl)-1,2,4-oxadiazol-3-yl)propan-2-yl)amino)-2-oxoacetyl)-N-(6-fluoro-5-methylpyridin-3-yl)-1,2,4-trimethyl-1H-pyrrole-3-carboxamide] | 50 to 499 nM | > 30000 nM
Cc1cc(NC(=O)c2c(C)c(C(=O)C(=O)NCCc3nnc[nH]3)n(C)c2C)ccc1F [Example 348, 5-(2-((2-(4H-1,2,4-triazol-3-yl)ethyl)amino)-2-oxoacetyl)-N-(4-fluoro-3-methylphenyl)-1,2,4-trimethyl-1H-pyrrole-3-carboxamide] | < 50 nM | > 30000 nM
Cc1cc(NC(=O)c2c(C)c(C(=O)C(=O)N[C@@H]3CCC[C@H](O)C3)n(C)c2C)ccc1F [Example 330, N-(4-fluoro-3-methylphenyl)-5-(2-(((1R,3S)-3-hydroxycyclohexyl)amino)-2-oxoacetyl)-1,2,4-trimethyl-1H-pyrrole-3-carboxamide] | < 50 nM | > 30000 nM
Cc1cc(NC(=O)c2c(C)c(C(=O)C(=O)Nc3ccc(F)c(F)c3)n(C)c2C)cnc1F [Example 341, 5-(2-((3,4-difluorophenyl)amino)-2-oxoacetyl)-N-(5-fluoro-5-methylpyridin-3-yl)-1,2,4-trimethyl-1H-pyrrole-3-carboxamide] | 50 to 499 nM | > 30000 nM
Cc1cc(NC(=O)c2cc(C(=O)C(=O)NC(C)(C)CO)n3c2CCC3)ccc1F [Example 537, N-(4-fluoro-3-methylphenyl)-5-(2-((1-hydroxy-2-methylpropan-2-yl)amino)-2-oxoacetyl)-2,3-dihydro-1H-pyrrolizine-7-carboxamide] | 50 to 499 nM | > 30000 nM
Cc1cc(NC(=O)c2cc(C(=O)C(=O)N[C@@H](C)C(F)(F)F)n3c2CCCC3)ccc1F [Example 407, (S)-N-(4-fluoro-3-methylphenyl)-3-(2-oxo-2-((1,1,1-trifluoropropan-2-yl)amino)acetyl)-5,6,7,78-tetrahydroindolizine-1-carboxamide] | 50 to 499 nM | > 30000 nM
Cc1noc([C@@H](C)NC(=O)C(=O)c2c(C)c(C(=O)Nc3ccc(F)c(F)c3)c3n2CCCC3)n1 [Example 454, (R)-N-(3,4-difluorophenyl)-2-methyl-3-(2-((1-(3-methyl-1,2,4-oxadiazol-5-yl)ethyl)amino)-2-oxoacetyl) 5,6,7,8-tetrahydroindolizine-1-carboxamide] | 50 to 499 nM | > 30000 nM
Cc1cc(NC(=O)c2c(C)c(C(=O)C(=O)N[C@@H]3CCC[C@H]3O)n(CCF)c2C)ccc1F [Example 195, N-(4-fluoro-3-methylphenyl)-1-(2-fluoroethyl)-5-(2-(((1R,2R)-2-hydroxycyclopentyl)amino)-2-oxoacetyl)-2,4-dimethyl-1H-pyrrole-3-carboxamide] | < 50 nM | > 30000 nM
Cc1cc(NC(=O)c2c(C)c(C(=O)C(=O)NC(C)(C)C(F)(F)F)n(CCF)c2C)ccc1F [Example 227, N-(4-fluoro-3-methylphenyl)-1-(2-fluoroethyl)-2,4-dimethyl-5-(2-oxo-2-((1,1,1-trifluoro-2-methylpropan-2-yl)amino)acetyl)-1H-pyrrole-3-carboxamide] | < 50 nM | > 30000 nM
Cc1c(C(=O)Nc2cc(F)c(F)c(F)c2)c(C)n(C)c1C(=O)C(=O)Nc1ccc(F)c(F)c1 [Example 322, 5-(2-((3,4-difluorophenyl)amino)-2-oxoacetyl)-1,2,4-trimethyl-N-(3,4,5-trifluorophenyl)-1H-pyrrole-3-carboxamide] | < 50 nM | 5000 to 30000 nM
Cc1c(C(=O)Nc2ccnc(Cl)c2)c(C)n(C)c1C(=O)C(=O)NC1C2CC3CC1CC(O)(C3)C2 [Example 209, N-(2-chloropyridin-4-yl)-5-(2-(((1R,2s,3S,5s,7s)-5-hydroxyadamantan-2-yl)amino)-2-oxoacetyl)-1,2,4-trimethyl-1H-pyrrole-3-carboxamide] | < 50 nM | > 30000 nM
O=C(N[C@H]1COC[C@@H]1O)C(=O)c1c(Cl)c(C(=O)Nc2ccc(F)c(Cl)c2)c2n1CCCC2 [Example 513, 2-chloro-N-(3-chloro-4-fluorophenyl)-3-(2-(((3S,4R)-4-hydroxytetrahydrofuran-3-yl)amino)-2-oxoacetyl)-5,6,7,8-tetrahydroindolizine-1-carboxamide] | 50 to 499 nM | > 30000 nM
Cc1cc(NC(=O)c2c(C)c(C(=O)C(=O)NC3(c4noc(C5CC5)n4)CCCC3)n(C)c2C)ccc1F [Example 637, 5-(2-((1-(5-cyclopropyl-1,2,4-oxadiazol-3-yl)cyclopentyl)amino)-2-oxoacetyl)-N-(4-fluoro-3-methylphenyl)-1,2,4-trimetthyl-1H-pyrrole-3-carboxamide] | < 50 nM | > 30000 nM
Cc1cc(NC(=O)c2c(C)c(C(=O)C(=O)NC3CCCCC3)n(C)c2C)ccc1F [Example 262, 5-(2-(cyclohexylamino)-2-oxoacetyl)-N-(4-fluoro-3-methylphenyl)-1,2,4-trimethyl-1H-pyrrole-3-carboxamide] | < 50 nM | 5000 to 30000 nM
Cc1cc(NC(=O)c2c(C)c(C(=O)C(=O)NCc3cnc(N)s3)n(C)c2C)ccc1F [Example 97, 5-(2-(((2-aminothiazol-5-yl)methyl)amino)-2-oxoacetyl)-N-(4-fluoro-3-methylphenyl)-1,2,4-trimethyl-1H-pyrrole-3-carboxamide] | < 50 nM | > 30000 nM
Cc1cc(NC(=O)c2cc(C(=O)C(=O)NC(C)(C)C)n3c2CCCC3)cc(F)c1F [Example 397, 3-(2-(tert-butylamino)-2-oxoacetyl)-N-(3,4-difluoro-5-metthylphenyl)-5,6,7,8-tetrahydroindolizine-1-carboxamide] | 50 to 499 nM | 5000 to 30000 nM
Cc1c(C(=O)Nc2ccc(F)nc2)c(C)n(C)c1C(=O)C(=O)NC1CCc2nc(N)sc2C1 (stereo not drawn) [Example 77, 5-(2-((2-amino-4,5,6,7-tetrahydrobenzo[d]thiazol-6-yl)amino)-2-oxoacetyl)-N-(6-fluoropyridin-3-yl)-1,2,4-trimethyl-1H-pyrrole-3-carboxamide] | 50 to 499 nM | > 30000 nM
Cc1[nH]c(C(=O)C(=O)NC(C)(C)C)c(C)c1C(=O)Nc1ccc(F)c(Cl)c1 [Example 3, 5-(2-(tert-butylamino)-2-oxoacetyl)-N-(3-chloro-4-fluorophenyl)-2,4-dimethyl-1H-pyrrole-3-carboxamide] | < 50 nM | 5000 to 30000 nM
Cc1cc(NC(=O)c2c(C)c(C(=O)C(=O)N[C@@H]3c4ccccc4C[C@@H]3O)n(C)c2C)ccc1F [Example 258, N-(4-fluoro-3-methylphenyl)-5-(2-(((1R,2S)-2-hydroxy-2,3-dihydro-1H-inden-1-yl)amino)-2-oxoacetyl)-1,2,4-trimethyl-1H-pyrrole-3-carboxamide] | < 50 nM | 5000 to 30000 nM
Cc1cc(NC(=O)c2c(C)c(C(=O)C(=O)NC3(C(F)(F)F)CCOCC3)n(C)c2C)cc(Cl)n1 [Example 638, N-(2-chloro-6-methylpyridin-4-yl)-1,2,4-trimethyl-5-(2-oxo-2-((4-(trifluoromethyl)etetrahydro-2H-pyran-4-yl)amino)acetyl)-1H-pyrrole-3-carboxamide] | < 50 nM | > 30000 nM
Cc1c(C(=O)Nc2ccc(F)c(F)c2)c2n(c1C(=O)C(=O)NC1(C)CCNCC1)CCCC2 [Example 742] | 50 to 499 nM | > 30000 nM
Cc1cc(NC(=O)c2c(C)c(C(=O)C(=O)NCC(C)(C)O)n3c2CCCC3)ccc1F [Example 444, N-(4-fluoro-3-methylphenyl)-3-(2-((2-hydroxy-2-methylpropyl)amino)-2-oxoacetyl)-2-methyl-5,6,7,8-tetrahydroindolizine-1-carboxamide] | < 50 nM | 5000 to 30000 nM
Cc1cc(NC(=O)c2c(C)c(C(=O)C(=O)NC3(C(F)(F)F)CCOCC3)n(CCF)c2C)ccc1F [Example 230, N-(4-fluoro-3-methylphenyl)-1-(2-fluoroethyl)--2,4-dimethyl-5-(2-oxo-2-((4-(trifluoromethyl)tetrahydro-2H-pyran-4-yl)amino)acetyl)-1H-pyrrole-3-carboxamide] | < 50 nM | > 30000 nM
Cc1c(C(=O)Nc2ccc(F)c(Cl)c2)c2n(c1C(=O)C(=O)N[C@H]1CCC[C@H]1O)CCCC2 [Example 451, N-(3-chloro-4-fluorophenyl)-3-(2-(((1S,2R)-2-hydroxycyclopentyl)amino)-2-oxoacetyl)-2-methyl-5,6,7,8-tetrahydroindolizine-1-carboxamide] | 50 to 499 nM | 5000 to 30000 nM
Cc1nc(C2(NC(=O)C(=O)c3c(C)c(C(=O)Nc4ccc(F)c(C)c4)c(C)n3C)CCCCC2)no1 [Example 632, N-(4-fluoro-3-methylphenyl)-1,2,4-trimethyl-5-(2-((1-(5-methyl-1,2,4-oxadiazol-3-yl)cyclohexyl)amino)-2-oxoacetyl)-1H-pyrrole-3-carboxamide] | < 50 nM | > 30000 nM
Cc1cc(NC(=O)c2c(C)c(C(=O)C(=O)N[C@H](C(=O)O)[C@H](C)O)n(C)c2C)ccc1F [Example 51, (2-(4-((4-fluoro-3-methylphenyl)carbamoyl)-1,3,5-trimethyl-1H-pyrrol-2-yl)-2-oxoacetyl)-L-allothreonine] | 50 to 499 nM | > 30000 nM
